Measurements reported in patent US4657897A, “N^6 -substituted adenosines for treating pain” (Warner-Lambert Company, priority 1985, dated 1987).

Molecular target: T1, adenosine A1 receptor (Rattus norvegicus, UniProt P25099)
T1 construct: Whole brain minus cerebellum and brainstem from male Long Evans rats; from tissue; host or cells: rat whole brain minus cerebellum and brainstem (male Long Evans), membranes
T1 sequence (P25099 1-326): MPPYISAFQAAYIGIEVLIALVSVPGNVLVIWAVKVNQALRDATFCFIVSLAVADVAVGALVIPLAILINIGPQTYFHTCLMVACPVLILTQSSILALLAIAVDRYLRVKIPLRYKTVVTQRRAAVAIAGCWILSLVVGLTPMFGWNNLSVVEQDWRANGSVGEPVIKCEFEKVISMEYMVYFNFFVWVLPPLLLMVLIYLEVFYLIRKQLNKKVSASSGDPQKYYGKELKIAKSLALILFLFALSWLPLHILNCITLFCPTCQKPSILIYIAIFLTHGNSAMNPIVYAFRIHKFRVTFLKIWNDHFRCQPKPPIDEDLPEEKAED
Experiment: Adenosine Receptor Binding--A1 Receptor Affinity (RBA1), [3H]-CHA binding, rat whole brain membranes
Design: species or system rat (male Long Evans)
Conditions: 1.0 nM [3H]-CHA, 25° C., 1 h
Description: Adenosine Receptor Binding--A1 Receptor Affinity (RBA1)
Whole brain minus cerebellum and brainstem from male Long Evans rats (150-200 g) was homogenized in 30 volumes of ice-cold 0.05M Tris-HCl buffer pH 7.7 using a Brinkman Polytron PT-10, (setting number 6 for 20 seconds) and centrifuged for ten minutes at 20,000×g (Sorvall RC-2), 4° C. The supernatant was discarded, and the pellet was resuspended and centrifuged as before. The pellet was resuspended in 20 ml Tris-HCl buffer containing two International Units/ml of adenosine deaminase (Sigma type III from calf intestinal mucosa), incubated at 37° C. for 30 minutes, then subsequently at 0° C. for ten minutes. The homogenate was again centrifuged, and the final pellet was resuspended in ice-cold 0.05M Tris-HCl buffer pH 7.7 to a concentration of 20 mg/ml original wet tissue weight and used immediately.
Tissue homogenate (10 mg/ml) was incubated in 0.05M Tris-HCl buffer pH 7.7 containing 1.0 nM [^3 H]-N^6 -cyclohexyladenosine[^3 H]-CHA) with or without test agents in triplicate for one hour at 25° C. Incubation volume was 2 ml. Unbound [^3 H]-CHA was separated by rapid filtration under reduced pressure through Whatman glass fiber (GF/B) filters. The filters were rinsed three times with 5 ml of ice cold 0.05M Tris-HCl buffer pH 7.7. The radio-labeled ligand retained on the filter was measured by liquid scintillation spectrophotometry after shaking the filters for one hour or longer on a mechanical shaker in 10 ml of Beckman Ready-Solv HP scintillation cocktail.
Nonspecific binding was defined as the binding which occurred in the presence of 1 mM theophylline. The concentration of test agent which inhibited 50% of the specific binding (IC50) was determined by nonlinear computer curve fit. The Scatchard plot was calculated by linear regression of the line obtained by plotting the amount of radioligand bound (pmoles/gram of tissue) [formula] Since the amount of radioligand bound was a small fraction of the total amount added, free radioligand was defined as the concentration (nM) of radioligand added to the incubation mixture. The Hill coefficient was calculated by linear regression of the line obtained by plotting the log of the bound radioligand vs the log of the [formula] The maximal number of binding sites (Bmax) was calculated from the Scatchard plot.

SMILES: OC[C@H]1O[C@@H](n2cnc3c(NCCC(c4ccccc4)c4ccccc4)ncnc32)[C@H](O)[C@@H]1O [Example 2, N^6-(3,3-Diphenylpropyl)adenosine]
- IC50: 139 nM
